Results as given in ChEMBL document CHEMBL1136175, “Synthesis and antimycobacterial activity of capuramycin analogues. Part 2: acylated derivatives of capuramycin-related compounds” (Bioorg Med Chem Lett, 2003).
Converted amounts (≈) assume the structure as drawn.

Assays:
[1] = test system: Mycolicibacterium smegmatis; assay: Antimycobacterial activity was determined against Mycobacterium smegmatis SANK75075; assay type: functional
[2] = target: T1, Phospho-N-acetylmuramoyl-pentapeptide-transferase (Escherichia coli K-12, UniProt P0A6W3); assay: Inhibitory concentration required against Translocase I
T1 sequence (P0A6W3 whole entry): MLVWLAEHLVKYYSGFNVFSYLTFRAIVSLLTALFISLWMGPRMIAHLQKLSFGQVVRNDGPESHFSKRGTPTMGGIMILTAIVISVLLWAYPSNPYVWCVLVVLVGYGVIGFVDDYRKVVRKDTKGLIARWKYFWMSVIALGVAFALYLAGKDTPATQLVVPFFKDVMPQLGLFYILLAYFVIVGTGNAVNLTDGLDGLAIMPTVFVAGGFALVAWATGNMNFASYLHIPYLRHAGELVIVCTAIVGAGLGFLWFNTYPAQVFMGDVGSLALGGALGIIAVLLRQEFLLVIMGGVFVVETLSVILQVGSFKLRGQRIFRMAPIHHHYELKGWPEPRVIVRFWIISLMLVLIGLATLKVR

[3] = test system: Mycobacterium intracellulare; assay: Antimycobacterial activity against Mycobacterium intracellular ATCC 1954 E-3; assay type: functional
[4] = test system: Mycobacterium kansasii; assay: Antimycobacterial activity against Mycobacterium kansasii ATCC 12478; assay type: functional
[5] = test system: Mycobacterium avium; assay: Antimycobacterial activity against Mycobacterium avium NIHJ1605; assay type: functional
[6] = target: T1, Phospho-N-acetylmuramoyl-pentapeptide-transferase; assay: Inhibitory concentration against translocase-I

Row | Compound | MIC [1] | IC50 [2] | MIC [3] | MIC [4] | MIC [5] | IC50 [6]
1 | CCCCCCCCC(=O)O[C@@H]1[C@H](OC)[C@@H]([C@@H](O[C@H]2OC(C(=O)Nc3ccccc3)=C[C@H](O)[C@@H]2O)C(N)=O)O[C@H]1n1ccc(=O)[nH]c1=O | 12.5 µg/mL (≈ 18.5 µM) | 1040 nM | 1 µg/mL (≈ 1.48 µM) | 1 µg/mL (≈ 1.48 µM) | 0.25 µg/mL (≈ 0.371 µM) | 
2 | CCCCCC(=O)O[C@@H]1[C@H](OC)[C@@H]([C@@H](O[C@H]2OC(C(=O)N[C@H]3CCC[C@@H](C)NC3=O)=C[C@H](O)[C@@H]2O)C(N)=O)O[C@H]1n1ccc(=O)[nH]c1=O | 50 µg/mL (≈ 73.3 µM) | 63.1 nM | 2 µg/mL (≈ 2.93 µM) | 2 µg/mL (≈ 2.93 µM) | 16 µg/mL (≈ 23.5 µM) | 
3 | CCCCCCCCCCCCCCC(=O)O[C@@H]1[C@H](OC)[C@@H]([C@@H](O[C@H]2OC(C(=O)N[C@H]3CCC[C@@H](C)NC3=O)=C[C@H](O)[C@@H]2O)C(N)=O)O[C@H]1n1ccc(=O)[nH]c1=O | 6.25 µg/mL (≈ 7.74 µM) | 2970 nM | 0.25 µg/mL (≈ 0.309 µM) | 4 µg/mL (≈ 4.95 µM) | 0.125 µg/mL (≈ 0.155 µM) | 
4 | CCCCCCO[C@@H]1[C@H](OC)[C@@H]([C@@H](O[C@H]2OC(C(=O)N[C@H]3CCC[C@@H](C)NC3=O)=C[C@H](O)[C@@H]2O)C(N)=O)O[C@H]1n1ccc(=O)[nH]c1=O | 50 µg/mL (≈ 74.9 µM) | 59.9 nM | 4 µg/mL (≈ 5.99 µM) | 32 µg/mL (≈ 47.9 µM) | 32 µg/mL (≈ 47.9 µM) | 
5 | CCCCCCCO[C@@H]1[C@H](OC)[C@@H]([C@@H](O[C@H]2OC(C(=O)N[C@H]3CCC[C@@H](C)NC3=O)=C[C@H](O)[C@@H]2O)C(N)=O)O[C@H]1n1ccc(=O)[nH]c1=O | 100 µg/mL (≈ 147 µM) | 80.7 nM | 4 µg/mL (≈ 5.87 µM) | 32 µg/mL (≈ 46.9 µM) | 32 µg/mL (≈ 46.9 µM) | 
6 | CCCCCCCCCCCC(=O)O[C@@H]1[C@H](OC)[C@@H]([C@@H](O[C@H]2OC(C(=O)Nc3ccccc3)=C[C@H](O)[C@@H]2O)C(N)=O)O[C@H]1n1ccc(=O)[nH]c1=O | 6.25 µg/mL (≈ 8.72 µM) | > 3490 nM | 4 µg/mL (≈ 5.58 µM) | 8 µg/mL (≈ 11.2 µM) | 1 µg/mL (≈ 1.4 µM) | 
7 | CCCCCCC(=O)O[C@@H]1[C@H](OC)[C@@H]([C@@H](O[C@H]2OC(C(=O)Nc3ccccc3)=C[C@H](O)[C@@H]2O)C(N)=O)O[C@H]1n1ccc(=O)[nH]c1=O | 25 µg/mL (≈ 38.7 µM) | 371 nM | 1 µg/mL (≈ 1.55 µM) | 0.5 µg/mL (≈ 0.773 µM) | 0.5 µg/mL (≈ 0.773 µM) | 
8 | CCCCCCCCCC(=O)O[C@@H]1[C@H](OC)[C@@H]([C@@H](O[C@H]2OC(C(=O)N[C@H]3CCCCNC3=O)=C[C@H](O)[C@@H]2O)C(N)=O)O[C@H]1n1ccc(=O)[nH]c1=O | 12.5 µg/mL (≈ 17.3 µM) |  | 0.25 µg/mL (≈ 0.345 µM) | 1 µg/mL (≈ 1.38 µM) | 0.5 µg/mL (≈ 0.691 µM) | 414 nM
9 | CCCCCCCCCCCCCCCCOC(=O)O[C@@H]1[C@H](OC)[C@@H]([C@@H](O[C@H]2OC(C(=O)N[C@H]3CCC[C@@H](C)NC3=O)=C[C@H](O)[C@@H]2O)C(N)=O)O[C@H]1n1ccc(=O)[nH]c1=O | > 100 µg/mL | > 2930 nM | 2 µg/mL (≈ 2.35 µM) | 8 µg/mL (≈ 9.39 µM) | 0.5 µg/mL (≈ 0.587 µM) | 
10 | CCCCCCCCOC(=O)O[C@@H]1[C@H](OC)[C@@H]([C@@H](O[C@H]2OC(C(=O)N[C@H]3CCC[C@@H](C)NC3=O)=C[C@H](O)[C@@H]2O)C(N)=O)O[C@H]1n1ccc(=O)[nH]c1=O | 25 µg/mL (≈ 33.8 µM) | 676 nM | 0.5 µg/mL (≈ 0.676 µM) | 2 µg/mL (≈ 2.7 µM) | 0.25 µg/mL (≈ 0.338 µM) | 
11 | CCCCCCCCCCCCCCCC(=O)O[C@@H]1[C@H](OC)[C@@H]([C@@H](O[C@H]2OC(C(=O)Nc3ccccc3)=C[C@H](O)[C@@H]2O)C(N)=O)O[C@H]1n1ccc(=O)[nH]c1=O | 12.5 µg/mL (≈ 16.2 µM) | > 3230 nM | 16 µg/mL (≈ 20.7 µM) | 32 µg/mL (≈ 41.4 µM) | 2 µg/mL (≈ 2.59 µM) | 
12 | CCCCCCCOC(=O)O[C@@H]1[C@H](OC)[C@@H]([C@@H](O[C@H]2OC(C(=O)N[C@H]3CCC[C@@H](C)NC3=O)=C[C@H](O)[C@@H]2O)C(N)=O)O[C@H]1n1ccc(=O)[nH]c1=O | 50 µg/mL (≈ 68.9 µM) | 276 nM | 1 µg/mL (≈ 1.38 µM) | 2 µg/mL (≈ 2.76 µM) | 0.25 µg/mL (≈ 0.344 µM) | 
13 | CCCCCCCCCCCC(=O)O[C@@H]1[C@H](OC)[C@@H]([C@@H](O[C@H]2OC(C(=O)N[C@H]3CCC[C@@H](C)NC3=O)=C[C@H](O)[C@@H]2O)C(N)=O)O[C@H]1n1ccc(=O)[nH]c1=O | 1.56 µg/mL (≈ 2.04 µM) | 2870 nM | < 0.063 µg/mL | 0.5 µg/mL (≈ 0.653 µM) | < 0.063 µg/mL | 
14 | CCCCCCCCCCO[C@@H]1[C@H](OC)[C@@H]([C@@H](O[C@H]2OC(C(=O)N[C@H]3CCC[C@@H](C)NC3=O)=C[C@H](O)[C@@H]2O)C(N)=O)O[C@H]1n1ccc(=O)[nH]c1=O | 25 µg/mL (≈ 34.5 µM) | 884 nM | 4 µg/mL (≈ 5.53 µM) | > 32 µg/mL | 1 µg/mL (≈ 1.38 µM) | 
15 | CCCCCCCCCC(=O)O[C@@H]1[C@H](OC)[C@@H]([C@@H](O[C@H]2OC(C(=O)Nc3ccccc3)=C[C@H](O)[C@@H]2O)C(N)=O)O[C@H]1n1ccc(=O)[nH]c1=O | 6.25 µg/mL (≈ 9.07 µM) | 2760 nM | 1 µg/mL (≈ 1.45 µM) | 2 µg/mL (≈ 2.9 µM) | 0.5 µg/mL (≈ 0.726 µM) | 
16 | CCCCCCCC(=O)O[C@@H]1[C@H](OC)[C@@H]([C@@H](O[C@H]2OC(C(=O)N[C@H]3CCC[C@@H](C)NC3=O)=C[C@H](O)[C@@H]2O)C(N)=O)O[C@H]1n1ccc(=O)[nH]c1=O | 25 µg/mL (≈ 35.2 µM) | 268 nM | 1 µg/mL (≈ 1.41 µM) | 1 µg/mL (≈ 1.41 µM) | 2 µg/mL (≈ 2.82 µM) | 
17 | CCCCCO[C@@H]1[C@H](OC)[C@@H]([C@@H](O[C@H]2OC(C(=O)N[C@H]3CCC[C@@H](C)NC3=O)=C[C@H](O)[C@@H]2O)C(N)=O)O[C@H]1n1ccc(=O)[nH]c1=O | 100 µg/mL (≈ 153 µM) | 76.5 nM | 4 µg/mL (≈ 6.12 µM) | > 32 µg/mL | > 32 µg/mL | 
18 | CCCCC(=O)O[C@@H]1[C@H](OC)[C@@H]([C@@H](O[C@H]2OC(C(=O)N[C@H]3CCC[C@@H](C)NC3=O)=C[C@H](O)[C@@H]2O)C(N)=O)O[C@H]1n1ccc(=O)[nH]c1=O | 100 µg/mL (≈ 150 µM) | 35.9 nM | 2 µg/mL (≈ 3 µM) | 16 µg/mL (≈ 24 µM) | 32 µg/mL (≈ 47.9 µM) | 
19 | CCCCCCC(=O)O[C@@H]1[C@H](OC)[C@@H]([C@@H](O[C@H]2OC(C(=O)N[C@H]3CCCCNC3=O)=C[C@H](O)[C@@H]2O)C(N)=O)O[C@H]1n1ccc(=O)[nH]c1=O | 25 µg/mL (≈ 36.7 µM) |  |  |  |  | 58.7 nM
20 | CCCCCCC(=O)O[C@@H]1[C@H](OC)[C@@H]([C@@H](O[C@H]2OC(C(=O)N[C@H]3CCC[C@@H](C)NC3=O)=C[C@H](O)[C@@H]2O)C(N)=O)O[C@H]1n1ccc(=O)[nH]c1=O | 50 µg/mL (≈ 71.9 µM) | 64.7 nM | 1 µg/mL (≈ 1.44 µM) | 2 µg/mL (≈ 2.87 µM) | 4 µg/mL (≈ 5.75 µM) | 
21 | CCCCCCCCC(=O)O[C@@H]1[C@H](OC)[C@@H]([C@@H](O[C@H]2OC(C(=O)N[C@H]3CCCCNC3=O)=C[C@H](O)[C@@H]2O)C(N)=O)O[C@H]1n1ccc(=O)[nH]c1=O | 12.5 µg/mL (≈ 17.6 µM) |  |  |  |  | 254 nM
22 | CCCCCCCCCCCCCCCC(=O)O[C@@H]1[C@H](OC)[C@@H]([C@@H](O[C@H]2OC(C(=O)N[C@H]3CCC[C@@H](C)NC3=O)=C[C@H](O)[C@@H]2O)C(N)=O)O[C@H]1n1ccc(=O)[nH]c1=O | 6.25 µg/mL (≈ 7.6 µM) | 523 nM | 0.25 µg/mL (≈ 0.304 µM) | 4 µg/mL (≈ 4.87 µM) | < 0.063 µg/mL | 
23 | CO[C@H]1[C@@H](O)[C@H](n2ccc(=O)[nH]c2=O)O[C@@H]1[C@@H](O[C@H]1OC(C(=O)Nc2ccccc2)=C[C@H](O)[C@@H]1O)C(N)=O | 6.25 µg/mL (≈ 11.7 µM) | 12.2 nM | 4 µg/mL (≈ 7.48 µM) | 8 µg/mL (≈ 15 µM) | 16 µg/mL (≈ 29.9 µM) | 
24 | CCCCCCCCCCCCCC(=O)O[C@@H]1[C@H](OC)[C@@H]([C@@H](O[C@H]2OC(C(=O)N[C@H]3CCC[C@@H](C)NC3=O)=C[C@H](O)[C@@H]2O)C(N)=O)O[C@H]1n1ccc(=O)[nH]c1=O | 3.13 µg/mL (≈ 3.94 µM) | 5670 nM | 0.125 µg/mL (≈ 0.157 µM) | 4 µg/mL (≈ 5.04 µM) | < 0.063 µg/mL | 
25 | CCCCCCCCCCCCCCCCCCCC(=O)O[C@@H]1[C@H](OC)[C@@H]([C@@H](O[C@H]2OC(C(=O)N[C@H]3CCC[C@@H](C)NC3=O)=C[C@H](O)[C@@H]2O)C(N)=O)O[C@H]1n1ccc(=O)[nH]c1=O | > 100 µg/mL | 34200 nM |  |  |  | 
26 | CCCCCCCCO[C@@H]1[C@H](OC)[C@@H]([C@@H](O[C@H]2OC(C(=O)N[C@H]3CCC[C@@H](C)NC3=O)=C[C@H](O)[C@@H]2O)C(N)=O)O[C@H]1n1ccc(=O)[nH]c1=O | 50 µg/mL (≈ 71.9 µM) | 216 nM | 2 µg/mL (≈ 2.87 µM) | > 32 µg/mL | 16 µg/mL (≈ 23 µM) | 
27 | CO[C@H]1[C@@H](O)[C@H](n2ccc(=O)[nH]c2=O)O[C@@H]1[C@@H](O[C@H]1OC(C(=O)N[C@H]2CCCCNC2=O)=C[C@H](O)[C@@H]1O)C(N)=O [CAPURAMYCIN] | 12.5 µg/mL (≈ 21.9 µM) |  | 8 µg/mL (≈ 14 µM) | 8 µg/mL (≈ 14 µM) | 8 µg/mL (≈ 14 µM) | 17.6 nM
